The text below walks through data of patent US10696692B2, “Amido-benzyl sulfone and sulfoxide derivates” (Forma TM, LLC, priority 2012, dated 2020).

The target in one assay is NAMPT (Homo sapiens (Human), UniProt P43490). The experiment in a line: Assay 1: Biochemical Inhibition Assay (NAMPT enzymatic reaction, NMN quantified by mass spectrometry).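 Note: recombinant His-tagged human NAMPT preincubated with compound 15 min, then reacted 30 min at rt with 1 µM NAM, 100 µM PRPP, 2.5 mM ATP, NMN product read by RapidFire MS, normalized to L-Cystathionine internal standard.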 The conditions noted are these: read-out: Biochemical (IC50).
Chain of NAMPT (P43490 whole entry): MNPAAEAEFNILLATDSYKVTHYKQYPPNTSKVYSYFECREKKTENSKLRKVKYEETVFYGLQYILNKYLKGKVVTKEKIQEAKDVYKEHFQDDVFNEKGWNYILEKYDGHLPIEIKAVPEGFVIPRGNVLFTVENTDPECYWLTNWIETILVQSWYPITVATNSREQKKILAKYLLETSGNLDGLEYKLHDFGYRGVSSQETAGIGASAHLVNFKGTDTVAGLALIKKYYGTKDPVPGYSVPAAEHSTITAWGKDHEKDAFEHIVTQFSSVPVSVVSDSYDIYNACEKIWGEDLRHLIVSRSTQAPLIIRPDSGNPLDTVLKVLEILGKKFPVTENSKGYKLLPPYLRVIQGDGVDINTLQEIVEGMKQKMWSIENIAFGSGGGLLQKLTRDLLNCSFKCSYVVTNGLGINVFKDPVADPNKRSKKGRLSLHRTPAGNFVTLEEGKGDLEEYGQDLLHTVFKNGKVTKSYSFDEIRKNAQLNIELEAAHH
A further assay relates to A2780 cells. Put plainly: Assay 2: In-Vitro Cell Proliferation Assay (A2780 cells, SRB readout, 72 hours).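 Note: viable cells counted via sulforhodamine B staining, absorbance at 570 nm, after 72 h exposure at 37 °C, DMSO 0.1% as control, media-only background subtracted.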 The assay is classed as cell-based. The conditions noted are these: A2780 cells, 72 hours, SRB, read-out: Cell Proliferation (IC50).

Like-named read-outs stand apart in the source and are kept apart here.

For the compound `O=C(NCc1ccc(S(=O)(=O)N2CCC[C@H](O)C2)cc1)c1cc2cnccc2[nH]1` [Example 52, 1H-Pyrrolo[3,2-c]pyridine-2-carboxylic acid 4-((S)-3-hydroxy-piperidine-1-sulfonyl)-benzylamide], the IC50 on NAMPT came to 27.6 nM; in the assay on A2780 cells (Homo sapiens, A2780, 72 h), 18.6 nM.

Turning to `O=C(NCc1ccc(S(=O)(=O)N2CCC[C@@H](O)C2)cc1)c1ccc2nccn2c1` [Example 53, Imidazo[1,2-a]pyridine-6-carboxylic acid 4-((R)-3-hydroxy-piperidine-1-sulfonyl)-benzylamide], the IC50 amounted to 16.9 nM at NAMPT and 22.6 nM with A2780 cells (Homo sapiens, A2780, 72 h).

As for `O=C(NCc1ccc(S(=O)(=O)N2CCC[C@H](O)C2)cc1)c1ccc2nccn2c1` [Example 54, Imidazo[1,2-a]pyridine-6-carboxylic acid 4-((S)-3-hydroxy-piperidine-1-sulfonyl)-benzylamide], the IC50 was determined as 15.6 nM on NAMPT and 11.4 nM in the assay on A2780 cells (Homo sapiens, A2780, 72 h).

As for `CC(C)(C)OC(=O)NC1CCN(S(=O)(=O)c2ccc(CNC(=O)c3ccc4nccn4c3)cc2)CC1` [Example 55, [1-(4-{[(lmodazo[1,2-a]pyridine-6-carbonyl)-amino]-methyl}-benzenesulfonyl)-piperidin-4-yl]-carbamic acid tert-butyl ester], the IC50 at NAMPT was 7.7 nM; in the assay with A2780 cells (Homo sapiens, A2780, 72 h), 4.3 nM.

With `N#CCCNC1CCN(S(=O)(=O)c2ccc(CNC(=O)c3cnc4[nH]ncc4c3)cc2)CC1` [Example 57, 1H-Pyrazolo[3,4-b]pyridine-5-carboxylic acid 4-[4-(2-cyano-ethylamino)-piperidine-1-sulfonyl]-benzylamide], the IC50 was determined as 64.8 nM on NAMPT and 55.5 nM with A2780 cells (Homo sapiens, A2780, 72 h).

With `O=C(NCc1ccc(S(=O)(=O)N2CCCCC2)cc1)c1ccn2nccc2n1` [Example 58, Pyrazolo[1,5-a]pyrimidine-5-carboxylic acid 4-(piperidine-1-sulfonyl)-benzylamide], the IC50 was 240 nM on NAMPT and 2000 nM with A2780 cells (Homo sapiens, A2780, 72 h).

For `C[C@@H]1CN(S(=O)(=O)c2ccc(CNC(=O)c3ccc4nccn4c3)cc2)C[C@H](C)N1` [Example 60, cis-Imidazo[1,2-a]pyridine-6-carboxylic acid 4-((3R,5S)-3,5-dimethyl-piperazine-1-sulfonyl)-benzylamide], the IC50 on NAMPT turned out to be 29.4 nM; in the assay on A2780 cells (Homo sapiens, A2780, 72 h) it was 15.2 nM.

For the compound `C[C@@H]1CN(S(=O)(=O)c2ccc(CNC(=O)c3cc4ccncc4o3)cc2)C[C@H](C)N1` [Example 61, cis-Furo[2,3-c]pyridine-2-carboxylic acid 4-((3R,5S)-3,5-dimethyl-piperazine-1-sulfonyl)-benzylamide], the IC50 on NAMPT came out at 21.5 nM; in the assay on A2780 cells (Homo sapiens, A2780, 72 h), 23.3 nM.

As for `O=C(NCc1ccc(S(=O)(=O)C2CCN(CC(F)(F)F)CC2)cc1)c1cnc2nccn2c1` [Example 64, Imidazo[1,2-a]pyrimidine-6-carboxylic acid 4-[1-(2,2,2-trifluoro-ethyl)-piperidine-4-sulfonyl]-benzylamide], the results for the IC50 at NAMPT and with A2780 cells were 3.7 nM and 8.8 nM, respectively.

As to `O=C(NCc1ccc(S(=O)(=O)C2CCN(CC(F)(F)F)CC2)cc1)c1ccc2nccn2c1` [Example 65, Imidazo[1,2-a]pyridine-6-carboxylic acid 4-[1-(2,2,2-trifluoro-ethyl)-piperidine-4-sulfonyl]-benzylamide], the IC50 on NAMPT was found to be 12.4 nM; in the assay with A2780 cells, 2.1 nM.

`O=C(NCc1ccc(S(=O)(=O)C2CCN(CC(F)(F)F)CC2)cc1)c1cc2cnccc2[nH]1` [Example 66, 1H-Pyrrolo[3,2-c]pyridine-2-carboxylic acid 4-[1-(2,2,2-trifluoro-ethyl)-piperidine-4-sulfonyl]-benzylamide]: the IC50 came to 15.4 nM on NAMPT and 3.2 nM in the assay on A2780 cells.

As to `O=C(NCc1ccc(S(=O)(=O)C2CCN(CC(F)(F)F)CC2)cc1)c1cc2ccncc2o1` [Example 67, Furo[2,3-c]pyridine-2-carboxylic acid 4-[1-(2,2,2-trifluoro-ethyl)-piperidine-4-sulfonyl]-benzylamide], the IC50 stood at 13.5 nM at NAMPT and 5.4 nM with A2780 cells.

For the compound `O=C(NCc1ccc(S(=O)(=O)C2CCN(C3CCOCC3)CC2)cc1)c1ccc2nccn2c1` [Example 69, Imidazo[1,2-a]pyridine-6-carboxylic acid 4-[1-(tetrahydro-pyran-4-yl)-piperidine-4-sulfonyl]-benzylamide], the values for the IC50 at NAMPT and in the assay with A2780 cells were 13.6 nM and 4.7 nM, respectively.

With `O=C(NCc1ccc(S(=O)(=O)N2C[C@@H]3CC(F)(F)C[C@@H]3C2)cc1)c1ccc2nccn2c1` [Example 70, cis-Imidazo[1,2-a]pyridine-6-carboxylic acid 4-((3aR,6aS)-5,5-difluoro-hexahydro-cyclopenta[c]pyrrole-2-sulfonyl)-benzylamide], the IC50 on NAMPT came to 6.4 nM; in the assay with A2780 cells (Homo sapiens, A2780, 72 h), 8 nM.

On to `O=C(NCc1ccc(S(=O)(=O)N2CC3CCOC3C2)cc1)c1ccc2nccn2c1` (stereo not drawn) [Example 72, Imidazo[1,2-a]pyridine-6-carboxylic acid 4-(hexahydro-furo[2,3-c]pyrrole-5-sulfonyl)-benzylamide], for which the IC50 on NAMPT was 14.3 nM; with A2780 cells (Homo sapiens, A2780, 72 h) it was 5.7 nM.

Consider `O=C(NCc1ccc(S(=O)(=O)[C@H]2CCOC2)cc1)c1cnc2nccn2c1` [Example 76, Imidazo[1,2-a]pyrimidine-6-carboxylic acid 4-[(S)-(tetrahydro-furan-3-yl)sulfonyl]-benzylamide], for which the IC50 on NAMPT is 9.8 nM; in the assay on A2780 cells, 423 nM.

For `O=C(NCc1ccc(S(=O)(=O)C2CCN(C3CCOCC3)CC2)cc1)c1cnc2nccn2c1` [Example 78, Imidazo[1,2-a]pyrimidine-6-carboxylic acid 4-[1-(tetrahydro-pyran-4-yl)-piperidine-4-sulfonyl]-benzylamide], the figures for the IC50 at NAMPT and with A2780 cells were 4 nM and 47.9 nM, respectively.

`O=C(NCc1ccc(S(=O)(=O)[C@@H]2CCOC2)cc1)c1cnc2nccn2c1` [Example 80, Imidazo[1,2-a]pyrimidine-6-carboxylic acid 4-[(R)-(tetrahydro-furan-3-yl)sulfonyl]-benzylamide]: the IC50 at NAMPT stood at 8.9 nM; in the assay on A2780 cells it was 457 nM.

With `O=C(NCc1ccc(S(=O)(=O)N2CCC[C@@H](O)C2)cc1)c1cc2ccncc2o1` [Example 82, Furo[2,3-c]pyridine-2-carboxylic acid 4-((R)-3-hydroxy-piperidine-1-sulfonyl)-benzylamide], the IC50 on NAMPT is 26.1 nM; in the assay on A2780 cells, 34.8 nM.

Take `C[C@@H]1CN(S(=O)(=O)c2ccc(CNC(=O)c3ccc4nccn4c3)cc2)C[C@H](C)N1CC(F)(F)F` [Example 83, Imidazo[1,2-a]pyridine-6-carboxylic acid 4-[(3R,5S)-3,5-dimethyl-4-(2,2,2-trifluoro-ethyl)-piperazine-1-sulfonyl]-benzylamide]: the IC50 on NAMPT was found to be 7.7 nM; in the assay on A2780 cells (Homo sapiens, A2780, 72 h) it was 2.6 nM.

With `O=C(NCc1ccc(S(=O)(=O)N2C[C@@H]3C[C@H]2CO3)cc1)c1ccc2nccn2c1` [Example 84, Imidazo[1,2-a]pyridine-6-carboxylic acid 4-[(1S,4S)-(2-oxa-5-aza-bicyclo[2.2.1]hept-5-yl)sulfonyl]-benzylamide], the IC50 at NAMPT was determined as 37.4 nM; with A2780 cells (Homo sapiens, A2780, 72 h), 16.6 nM.

Take `CC(=O)N1CCC(S(=O)(=O)c2ccc(CNC(=O)c3cnc4nccn4c3)cc2)CC1` [Example 86, Imidazo[1,2-a]pyrimidine-6-carboxylic acid 4-(1-acetyl-piperidine-4-sulfonyl)-benzylamide]: the IC50 at NAMPT was determined as 5.1 nM; in the assay with A2780 cells, 527 nM.

For `O=C(NCc1ccc(S(=O)(=O)[C@@H]2CCOC2)cc1)c1cnc2[nH]ncc2c1` [Example 90, 1H-Pyrazolo[3,4-b]pyridine-5-carboxylic acid 4-[(R)-(tetrahydro-furan-3-yl)sulfonyl]-benzylamide], the figures for the IC50 on NAMPT and in the assay with A2780 cells were 227 nM and 1800 nM, respectively.

As for `O=C(NCc1ccc(S(=O)(=O)N2CCN(C3COC3)CC2)cc1)c1ccc2nccn2c1` [Example 92, Imidazo[1,2-a]pyridine-6-carboxylic acid 4-(4-oxetan-3-yl-piperazine-1-sulfonyl)-benzylamide], the IC50 at NAMPT amounted to 29.4 nM; in the assay on A2780 cells (Homo sapiens, A2780, 72 h) it was 7.5 nM.

Regarding `CC(=O)N1CCN(S(=O)(=O)c2ccc(CNC(=O)c3ccc4nccn4c3)cc2)CC1` [Example 93, Imidazo[1,2-a]pyridine-6-carboxylic acid 4-(4-acetyl-piperazine-1-sulfonyl)-benzylamide], the IC50 on NAMPT worked out at 22.4 nM; in the assay with A2780 cells (Homo sapiens, A2780, 72 h), 13 nM.

On to `O=C(NCc1ccc(S(=O)(=O)N2CCN(CCO)CC2)cc1)c1ccc2nccn2c1` [Example 94, Imidazo[1,2-a]pyridine-6-carboxylic acid 4-[4-(2-hydroxy-ethyl)-piperazine-1-sulfonyl]-benzylamide], for which the IC50 on NAMPT worked out at 75.9 nM; with A2780 cells (Homo sapiens, A2780, 72 h), 29 nM.

For `N#CC1CCN(S(=O)(=O)c2ccc(CNC(=O)c3ccc4nccn4c3)cc2)CC1` [Example 95, Imidazo[1,2-a]pyridine-6-carboxylic acid 4-(4-cyano-piperidine-1-sulfonyl)-benzylamide], the IC50 was 41 nM at NAMPT and 33.5 nM with A2780 cells (Homo sapiens, A2780, 72 h).

With `O=C(NCc1ccc(S(=O)(=O)N2CCC(CO)CC2)cc1)c1ccc2nccn2c1` [Example 96, Imidazo[1,2-a]pyridine-6-carboxylic acid 4-(4-hydroxymethyl-piperidine-1-sulfonyl)-benzylamide], the IC50 at NAMPT stood at 24.7 nM; in the assay with A2780 cells (Homo sapiens, A2780, 72 h) it was 9.4 nM.

As to `O=C(NCc1ccc(S(=O)(=O)N2CCC(N3CCCC3)CC2)cc1)c1ccc2nccn2c1` [Example 97, Imidazo[1,2-a]pyridine-6-carboxylic acid 4-(4-pyrrolidin-1-yl-piperidine-1-sulfonyl)-benzylamide], the IC50 on NAMPT was 14.4 nM; with A2780 cells (Homo sapiens, A2780, 72 h), 5.4 nM.

Take `COCCN1CCN(S(=O)(=O)c2ccc(CNC(=O)c3ccc4nccn4c3)cc2)CC1` [Example 98, Imidazo[1,2-a]pyridine-6-carboxylic acid 4-[4-(2-methoxy-ethyl)-piperazine-1-sulfonyl]-benzylamide]: the IC50 was 46.1 nM at NAMPT and 10.1 nM in the assay with A2780 cells (Homo sapiens, A2780, 72 h).
